Measurements published in patent US20030206893A1, “Cell proliferating agents” (priority 2002, published 2003).
Structures can show the parent of a compound that is named as a salt.

Legend:
[1] = tested on: human skin fibroblast cell line (normal human dermal fibroblasts, neonatal); assay: Proliferative response of plant growth factors on human skin fibroblast cell line, 96-well assay (Cell Titer 96 Aqueous One, absorbance 490 nm); type: cell-based; conditions: 28 hours incubation, serum-free DMEM
Experimental: The proliferative response of plant growth factors on the human skin fibroblast cell line (Clonetics, Walkersville, Md., normal human dermal fibroblasts, neonatal, Catalog No. CC-2509) was determined in a 96-well assay system using serum-free medium as a control.
Stock solution of gibberellic acid (Sigma Chemical Company, St. Louis, Mo.) (0.001 M) was prepared in water and then diluted with serum-free Dulbecco's Modified Eagle's Medium (DMEM, Sigma Chemical Co., St. Louis, Mo.) to 10^−5, (“GA2”) and 10^−6 (“GA1”) M solutions. Cells were seeded into 96 well plates at a concentration of 3×10^3 cells in 100 microliters of DMEM containing 10 percent fetal bovine serum (FBS, Sigma Chemical Co., St. Louis, Mo.). Plates were incubated for 24 hours at 37° C. in a humidified, 5 percent CO2 atmosphere. After incubation, the medium was aspirated and the wells were rinsed twice with 100 microliters of serum-free DMEM. The final rinse was aspirated and 100 microliters of the 10^−5 and 10^−6 M of each solution was added to 10 wells. In addition, 100 microliters of vehicle (serum-free DMEM) was added to 10 wells as control. All wells were incubated for 28 hours at 37° C. in a humidified, 5 percent CO2 atmosphere. After incubation, 20 microliters of Cell Titer 96 Aqueous One Solution Reagent (Promega, Corp., Madison, Wis.) was added to all wells. The plates were swirled gently and placed back in the incubator for 45 minutes and spectrophotometric absorbance was read at 490 nm.
Statistical analysis was done by using one-way ANOVA.
Kinetin (Spectrum Chemical, CA) 1 mg/ml aqueous solution as supplied by the Company was used as a stock solution. Further dilutions were made with serum-free Dulbecco's Modified Eagle's Medium (DMEM, Sigma Chemical Co., St. Louis, Mo.) to 10^−5, (“K2”) and 10^−6 (“K1”) M solutions. Cells were seeded into 96 well plates at a concentration of 3×10^3 cells in 100 microliters of DMEM containing 10 percent fetal bovine serum (FBS, Sigma Chemical Co., St. Louis, Mo.). Plates were incubated for 24 hours at 37° C. in a humidified, 5 percent CO2 atmosphere. After incubation, the medium was aspirated and the wells were rinsed twice with 100 microliters of serum-free DMEM. The final rinse was aspirated and 100 microliters of the 10^−5 and 10^−6 M of each solution was added to 10 wells. In addition, 100 microliters of vehicle (serum-free DMEM) was added to 10 wells as control. All wells were incubated for 28 hours at 37° C. in a humidified, 5 percent CO2 atmosphere. After incubation, 20 microliters of Cell Titer 96 Aqueous One Solution Reagent (Promega, Corp., Madison, Wis.) was added to all wells. The plates were swirled gently and placed back in the incubator for 45 minutes and spectrophotometric absorbance was read at 490 nm. […]

[2] = tested on: human fibroblasts; conditions: reported by S. I. Rattan, Biochem Biophys Res. Comm., 201, 665-672, 1994; cited from earlier work
[3] = 10^-4, 10^-5 and 10^-6 M solutions, 2x10^3 cells seeded
[4] = 10^-5 and 10^-6 M solutions, 3x10^3 cells seeded

SMILES	effect on cell proliferation versus serum-free medium control (one-way ANOVA) [1, 3]	effect on cell proliferation versus serum-free medium control (one-way ANOVA) [1, 4]	effect on onset of aging characteristics in human fibroblasts [2]
CC/C=C\C[C@H]1C(=O)CC[C@@H]1CC(=O)O [jasmonic acid]	strong cell proliferating agent		
C/C(=C\CNc1ncnc2[nH]cnc12)CO [zeatin, trans-zeatin HCl]	good cell proliferating agent		
c1coc(CNc2ncnc3[nH]cnc23)c1 [kinetin]		good cell proliferating agent	delay the onset of aging characteristics
C=C1C[C@]23C[C@@]1(O)CC[C@H]2[C@@]12C=C[C@H](O)[C@@](C)(C(=O)O1)[C@H]2[C@@H]3C(=O)O [gibberellic acid]		good cell proliferating agent	
